Among the data in ChEMBL document CHEMBL1125413 (J Med Chem, 1992) are IC50 values, retold here.

Test [1] has as its target T1, Sodium-dependent dopamine transporter (Rattus norvegicus, UniProt P23977).
The target in test [2] is T1, Sodium-dependent dopamine transporter. As to the kind of experiment: Inhibition of [3H]dopamine uptake at dopamine transporter.
Test [3] has the same target. The test is described as follows: Inhibition of [3H]mazindol binding to the dopamine transporter.
Test [4] has the same target. The test is described as follows: Inhibition of [3H]WIN-35428 binding to the dopamine transporter.
Test [5] shares this target. The test is described as follows: Inhibition of dopamine uptake at dopamine transporter.
Test [6] shares this target. As to the kind of experiment: Potency for the inhibition of [3H]WIN-35428 binding to the dopamine transporter.
For test [7] the target is unchanged. As to the kind of experiment: Inhibition of [3H]cocaine binding to the dopamine transporter.
For test [8] the target is unchanged. As to the kind of experiment: Inhibition of [3H]dopamine uptake at the dopamine transporter.
Test [9] shares this target. The source holds these as a separate data set.
The target is the same in test [10]. As to the kind of experiment: Inhibition of [3H]-dopamine uptake at dopamine transporter.
Test [11] shares this target. The test is described as follows: Inhibition of [3H]GBR-12935 binding to the dopamine transporter.
Test [12] has the same target. The test is described as follows: Inhibition of [3H]BTCP binding to the dopamine transporter.
The target is the same in test [13]. The source holds these as a separate data set.

Molecules are shown by their SMILES.

T1 sequence (P23977 whole entry): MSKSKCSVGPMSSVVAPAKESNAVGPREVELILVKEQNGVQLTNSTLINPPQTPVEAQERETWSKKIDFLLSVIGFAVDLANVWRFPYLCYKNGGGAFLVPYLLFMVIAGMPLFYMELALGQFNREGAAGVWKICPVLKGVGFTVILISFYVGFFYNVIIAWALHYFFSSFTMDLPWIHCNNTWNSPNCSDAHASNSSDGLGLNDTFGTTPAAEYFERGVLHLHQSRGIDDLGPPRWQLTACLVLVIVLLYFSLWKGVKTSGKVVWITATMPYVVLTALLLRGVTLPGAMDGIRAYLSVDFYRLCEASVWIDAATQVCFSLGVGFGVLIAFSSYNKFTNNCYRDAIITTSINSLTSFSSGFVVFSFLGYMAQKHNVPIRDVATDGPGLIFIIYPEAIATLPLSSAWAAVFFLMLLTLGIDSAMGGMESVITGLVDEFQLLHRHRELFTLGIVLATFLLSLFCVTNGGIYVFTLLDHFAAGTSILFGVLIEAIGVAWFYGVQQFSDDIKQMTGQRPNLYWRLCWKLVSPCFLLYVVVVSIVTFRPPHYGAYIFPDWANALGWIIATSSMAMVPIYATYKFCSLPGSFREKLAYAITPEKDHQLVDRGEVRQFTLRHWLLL

A word on the IC50: it is the point on the concentration scale where inhibition reaches its midpoint. Low values mean greater potency in that assay, high ones weaker potency in that assay. For `C=CCN1C2CC[C@@H]1C[C@H](OC(=O)c1ccccc1)C2C(=O)OC` (stereo partly specified), the IC50 in test [1] came to 1.02 µM; in test [2], 2.5 µM.
The molecule `COC(=O)C1C2CC[C@H](C[C@@H]1O)N2C` (stereo in doubt; 31) returned an IC50 in [3] of 87 µM.
In test [1], `COC(=O)C1C2CC[C@H](C[C@@H]1c1ccc(F)cc1)N2` (stereo partly specified) displayed an IC50 of 0.036 µM.
With `COC(=O)C1C2CC[C@H](C[C@@H]1c1ccccc1)N2` (stereo partly specified), the half-inhibitory concentration (IC50) stood at 0.086 µM in test [1] and 0.36 µM in [3].
For the molecule `COC(=O)[C@@H]1C2CC[C@H](C[C@@H]1c1ccc(N=[N+]=[N-])cc1)N2C`, the IC50 in test [4] was 0.002 µM; in [5], 0.2 µM.
In [6], `COC(=O)[C@@H]1C2CC[C@H](C[C@@H]1c1ccccc1)N2C` came in with an IC50 of 0.561 µM.
For the molecule `COC(=O)[C@@H]1C2CC[C@H](C[C@@H]1c1ccccc1)N2C` (stereo in doubt; 70), the figures for the IC50 in test [7] and in [5] were 1.2 µM and 2.1 µM, respectively.
`CN1[C@@H]2CC[C@H]1C[C@H](OC(=O)c1ccccc1)C2`: the IC50 amounted to 23 µM in [1]; 15 µM in test [3]; 3.3 µM in test [7]; 186 µM in test [5]; 110 µM in [8].
In the case of `COC(=O)C1C2CC[C@H](C[C@@H]1OC(=O)c1cccc(N=C=S)c1)N2C` (stereo partly specified), the IC50 was 0.072 µM in test [9] and 1.46 µM in [6].
In the case of `COC(=O)C1C2CC[C@H](C[C@@H]1OC(=O)c1ccc(N=C=S)cc1)N2C` (stereo partly specified), the 50% inhibitory concentration (IC50) turned out to be 2.78 µM in test [2], 0.276 µM in test [9] and 1.05 µM in test [6].
As for `COC(=O)C1C2CC[C@H](C[C@@H]1c1ccc(Cl)cc1)N2C` (stereo partly specified), the IC50 in test [3] came to 0.002 µM; in [4], 0.001 µM; in test [5], 0.03 µM.
For the molecule `CN1C2CC[C@@H]1C[C@H](OC(=O)c1ccc(N)cc1)C2C(=O)O` (stereo partly specified), the IC50 in test [3] was determined as 4.51 µM; in [10], 0.035 µM; in [9], 0.009 µM; in [6], 8.25 µM.
In turn, `COC(=O)C1C2CC[C@H](C[C@@H]1c1ccc(I)cc1)N2C` (stereo partly specified) showed an IC50 in [6] of 0.001 µM. This counts as single-digit nanomolar.
In the case of `COC(=O)C1C2CC[C@H](C[C@@H]1OC(=O)c1ccccc1)N2Cc1ccccc1` (stereo partly specified), the IC50 was determined as 0.668 µM in test [4]; 0.077 µM in test [2]; 0.02 µM in [7]; 0.25 µM in test [11]; 0.14 µM in [12].
Take `COC(=O)C1C2CC[C@H](C[C@@H]1OC(=O)c1ccc(N)cc1)N2C` (stereo partly specified): the IC50 in [3] was 3.04 µM; in test [6], 1.23 µM.
For the molecule `O=C(O[C@H]1C[C@H]2CCC(N2)C1C(=O)O)c1ccccc1` (stereo partly specified), the IC50 in test [3] was found to be 342 µM; in test [7], 78.2 µM.
As for `COC(=O)[C@@H]1C2CC[C@H](C[C@@H]1c1ccccc1)N2C` (stereo in doubt; 68), the IC50 in [3] is 385 µM; in test [4], 2.9 µM; in [7] it was 2.6 µM.
`CN1C2CC[C@@H]1C[C@H](c1ccc(Cl)cc1)C2C(=O)OCCc1ccc(N=[N+]=[N-])c(I)c1` (stereo partly specified) displayed an IC50 in [2] of 1.4 µM.
With `CC[C@H](C)[C@H](NC(=O)[C@@H](NC[C@H](CC(C)C)NC(=O)[C@H](Cc1c[nH]cn1)NC(=O)[C@H](Cc1ccccc1)NC(=O)[C@]1(C)CCCN1C(=O)OC(C)(C)C)C(C)C)C(=O)NCc1ccccn1`, the IC50 is 0.178 µM in [3], 2.48 µM in test [2], 0.029 µM in [10] and 0.093 µM in [9].
As for `COC(=O)[C@@H]1C2CC[C@H](C[C@@H]1c1ccccc1)N2C` (stereo in doubt; 49), the IC50 in test [1] is 0.022 µM; in test [2] it was 1.33 µM.
Consider `COC(=O)C1C2CC[C@H](C[C@@H]1OC(=O)Nc1cccc([N+](=O)[O-])c1)N2C` (stereo partly specified), for which the IC50 in test [1] is 0.037 µM; in test [2], 0.178 µM; in test [9], 0.33 µM.
With `COC(=O)C1C2CC[C@H](C[C@@H]1OC(=O)c1ccccc1)N2` (stereo in doubt; 22), the IC50 in test [1] was determined as 0.414 µM; in [3], 1.21 µM; in test [9], 0.092 µM; in test [6] it was 0.303 µM.
On to `CN1C2CC[C@@H]1C[C@H](O)C2C(=O)O` (stereo partly specified), for which the IC50 is greater than 1000 µM in test [3] and 0.0047 µM in test [9].
Consider `COC(=O)C1C2CC[C@H](C[C@@H]1OC(=O)c1ccccc1)[N+]2(C)C` (stereo partly specified), for which the IC50 was determined as 20 µM in test [3], 0.014 µM in test [10], 10.7 µM in test [6] and 0.008 µM in test [12].
For `COC(=O)C1C2CC[C@H](C[C@@H]1OC(=O)c1ccccc1)N2` (stereo in doubt; 23), the IC50 in [1] was found to be 0.27 µM; in [2], 2.5 µM.
Turning to `CN1C2CC[C@@H]1C[C@H](OC(=O)c1ccccc1)C2C(=O)OCCc1ccc(N)cc1` (stereo partly specified), the IC50 in [4] came out at 0.071 µM. This counts as double-digit nanomolar.
As for `COC(=O)[C@@H]1C2CC[C@H](C[C@@H]1c1ccc(N)cc1)N2C`, the values for the IC50 in test [7] and in test [5] were 0.192 µM and 0.557 µM, respectively.
In the case of `COC(=O)C1C2CC[C@H](C[C@@H]1O)N2C` (stereo in doubt; 18), in [3], the IC50 came to 62 µM.
Consider `c1ccc2sc(C3(N4CCCCC4)CCCCC3)cc2c1`, for which the IC50 came to 0.042 µM in [1], 0.02 µM in test [9], 0.002 µM in test [13] and 0.005 µM in test [12].
In [10], `CNC(=O)C1C2CC[C@H](C[C@@H]1OC(=O)c1ccccc1)N2C` (stereo partly specified) displayed an IC50 of 2 µM. This counts as single-digit micromolar.
For `COC(=O)C1C2CC[C@H](C[C@H]1c1ccc(C)cc1)N2C` (stereo partly specified), the IC50 in test [3] is 0.005 µM; in [2], 0.11 µM; in [6], 0.002 µM.
For the molecule `COC(=O)[C@@H]1C2CC[C@H](C[C@@H]1c1ccccc1)N2C` (stereo in doubt; 47), the IC50 in test [1] came out at 0.044 µM; in test [3] it was 0.119 µM; in test [2], 0.96 µM.
In test [2], `COC(=O)C1C2CC[C@H](C[C@@H]1OC(=O)c1ccc(N=[N+]=[N-])c(I)c1)N2C` (stereo partly specified) yielded an IC50 of 0.8 µM.
For the molecule `COC(=O)[C@@H]1C2CC[C@H](C[C@@H]1c1ccccc1)N2C` (stereo in doubt; 50), the IC50 in test [1] was 32 µM; in test [2] it was 200 µM.
